Source: patent US10076519B2 (CYTOKINETICS, INC., priority 2010, dated 2018)

System: rabbit skeletal myofibrils (fast skeletal myofibrils)
Assay: Activation of fast skeletal myofibrils (PUMA assay, PK/LDH-coupled ATPase at pCa25)
Assay type: biochemical
Summary of the method: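 ATPase activity of Triton-washed rabbit skeletal myofibrils, roughly 90% fast fibres, tracked by NADH loss at 340 nm through a PK/LDH-coupled ADP-regenerating system. Calcium set to 25% of maximal activity (pCa25), in PIPES 12 mM pH 6.8 with 2 mM MgCl2 and 1 mM DTT; AC1.4 reported.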

[1] = median AC1.4 reported as class, procedure of Example 39
[2] = AC1.4 determined according to the procedure of Example 39, reported as class symbols
[3] = median AC1.4 class, procedure of Example 39

Structure (SMILES) | Mean AC1.4 [1] | Mean AC1.4 [3] | also measured
N#Cc1nc[nH]c1NC(=O)c1ccc(NCC2(c3ncccc3F)CCC2)nn1 [N-(4-cyanoimidazol-5-yl)[6-({[(3-fluoro(2-pyridyl))cyclobutyl]methyl}ami-no)pyridazin-3-yl]carboxamide] | C (C=10-20 uM) | – | –
N#Cc1cn[nH]c1NC(=O)c1ccc(NCC2(c3ncccc3F)CCC2)nn1 [N-(4-cyanopyrazol-5-yl)[6-({[(3-fluoro(2-pyridyl))cyclobutyl]methyl}ami-no)pyridazin-3-yl]carboxamide] | B (B=1-10 uM) | – | –
CC(C)(CNc1ccc(C(=O)N[C@H](Cc2ccccc2)C(N)=O)nn1)c1ccc(F)cc1 [N-((1R)-1-carbamoyl-2-phenylethyl)(6-{[2-(4-fluorophenyl)-2-methylpropyl]amino}pyridazin-3-yl)carboxamide] | – | – | Mean AC1.4 [2]: C (C=10-20 uM)
CC(C)(CNc1ccc(C(=O)N[C@@H](CO)C(N)=O)nn1)c1ccc(F)cc1 [N-((1S)-1-carbamoyl-2-hydroxyethyl)(6-{[2-(4-fluorophenyl)-2-methylpropyl]amino}pyridazin-3-yl)carboxamide] | – | – | Mean AC1.4 [2]: D (D=>20 uM)
CC(C)(CNc1ccc(C(=O)N[C@@H](Cc2ccccc2)C(N)=O)nn1)c1ccc(F)cc1 [N-((1S)-1-carbamoyl-2-phenylethyl)(6-{[2-(4-fluorophenyl)-2-methylpropyl]amino}pyridazin-3-yl)carboxamide] | – | – | Mean AC1.4 [2]: C (C=10-20 uM)
CC(C)(C)[S+]([O-])NCc1cnc(-c2ccc(NCC3(c4ncccc4F)CCC3)nn2)s1 (centres unmarked) [N-((2-(6-((1-(3-fluoropyridin-2-yl)cyclobutyl)methylamino)pyr-idazin-3-yl)thiazol-5-yl)methyl)-2-methylpropane-2-sulfinamide] | – | B (B=1-10 uM) | –
O=C(NC[C@@H](O)CO)c1cnc(-c2ccc(NCC3(c4ncccc4F)CCC3)nn2)s1 [N-((2R)-2,3-dihydroxypropyl){2-[6-({[(3-fluoro(2-pyridyl))cyclobutyl]methyl}ami-no)pyridazin-3-yl](1,3-thiazol-5-yl)}carboxamide] | – | B (B=1-10 uM) | –
O=C(NC[C@@H](O)CO)c1ccc(F)c(-c2ccc(NC[C@]3(c4ncccc4F)C[C@H](F)C3)nn2)c1 [N-((2R)-2,3-dihydroxypropyl){4-fluoro-3-[6-({[3-fluoro-1-(3-fluoro(2-pyridyl))cyclobutyl]methyl}ami-no)pyridazin-3-yl]phenyl}carboxamide] | – | A (A=<1 uM) | –
O=C(NC[C@H](O)CO)c1cnc(-c2ccc(NCC3(c4ncccc4F)CCC3)nn2)s1 [N-((2S)-2,3-dihydroxypropyl){2-[6-({[(3-fluoro(2-pyridyl))cyclobutyl]methyl}ami-no)pyridazin-3-yl](1,3-thiazol-5-yl)}carboxamide] | – | A (A=<1 uM) | –
O=C(NC[C@H](O)CO)c1ccc(F)c(-c2ccc(NC[C@]3(c4ncccc4F)C[C@H](F)C3)nn2)c1 [N-((2S)-2,3-dihydroxypropyl){4-fluoro-3-[6-({[3-fluoro-1-(3-fluoro(2-pyridyl))cyclobutyl]methyl}ami-no)pyridazin-3-yl]phenyl}carboxamide] | – | A (A=<1 uM) | –
O=C(N[C@@H]1CCNC1=O)c1ccc(NCC2(c3ncccc3F)CCC2)nn1 [N-((3R)-2-oxopyrrolidin-3-yl)[6-({[(3-fluoro(2-pyridyl))cyclobutyl]methyl}ami-no)pyridazin-3-yl]carboxamide] | D (D=>20 uM) | – | –
O=C1CC[C@@H](NC(=O)c2ccc(NCC3(c4ncccc4F)CCC3)nn2)CN1 [N-((3R)-6-oxo(3-piperidyl))[6-({[(3-fluoro(2-pyridyl))cyclobutyl]methyl}ami-no)pyridazin-3-yl]carboxamide] | D (D=>20 uM) | – | –
O=C(N[C@@H]1CCOC1)c1cccc(-c2ccc(NC[C@]3(c4ncccc4F)C[C@H](F)C3)nn2)c1 [N-((3R)oxolan-3-yl){3-[6-({[3-fluoro-1-(3-fluoro(2-pyridyl))cyclobutyl]methyl}ami-no)pyridazin-3-yl]phenyl}carboxamide] | B (B=1-10 uM) | – | –
O=C(N[C@@H]1CCNC1)c1cnc(-c2ccc(NCC3(c4ncccc4F)CCC3)nn2)s1 [N-((3R)pyrrolidin-3-yl){2-[6-({[(3-fluoro(2-pyridyl))cyclobutyl]methyl}ami-no)pyridazin-3-yl](1,3-thiazol-5-yl)}carboxamide] | – | A (A=<1 uM) | –
O=C(N[C@@H]1CCNC1)c1ccc(F)c(-c2ccc(NC[C@]3(c4ncccc4F)C[C@H](F)C3)nn2)c1 [N-((3R)pyrrolidin-3-yl){4-fluoro-3-[6-({[3-fluoro-1-(3-fluoro(2-pyridyl))cyclobutyl]methyl}ami-no)pyridazin-3-yl]phenyl}carboxamide] | – | B (B=1-10 uM) | –
O=C(N[C@H]1CCNC1=O)c1ccc(NCC2(c3ncccc3F)CCC2)nn1 [N-((3S)-2-oxopyrrolidin-3-yl)[6-({[(3-fluoro(2-pyridyl))cyclobutyl]methyl}ami-no)pyridazin-3-yl]carboxamide] | D (D=>20 uM) | – | –

Structure (SMILES) | Mean AC1.4 [1] | Mean AC1.4 [3] | also measured
O=C1CC[C@H](NC(=O)c2ccc(NCC3(c4ncccc4F)CCC3)nn2)CN1 [N-((3S)-6-oxo(3-piperidyl))[6-({[(3-fluoro(2-pyridyl))cyclobutyl]methyl}ami-no)pyridazin-3-yl]carboxamide] | D (D=>20 uM) | – | –
O=C(N[C@H]1CCOC1)c1cccc(-c2ccc(NC[C@]3(c4ncccc4F)C[C@H](F)C3)nn2)c1 [N-((3S)oxolan-3-yl){3-[6-({[3-fluoro-1-(3-fluoro(2-pyridyl))cyclobutyl]methyl}ami-no)pyridazin-3-yl]phenyl}carboxamide] | B (B=1-10 uM) | – | –
O=C(N[C@H]1CCNC1)c1cnc(-c2ccc(NCC3(c4ncccc4F)CCC3)nn2)s1 [N-((3S)pyrrolidin-3-yl){2-[6-({[(3-fluoro(2-pyridyl))cyclobutyl]methyl}ami-no)pyridazin-3-yl](1,3-thiazol-5-yl)}carboxamide] | – | A (A=<1 uM) | –
O=C(N[C@H]1CCNC1)c1ccc(F)c(-c2ccc(NC[C@]3(c4ncccc4F)C[C@H](F)C3)nn2)c1 [N-((3S)pyrrolidin-3-yl){4-fluoro-3-[6-({[3-fluoro-1-(3-fluoro(2-pyridyl))cyclobutyl]methyl}ami-no)pyridazin-3-yl]phenyl}carboxamide] | – | B (B=1-10 uM) | –
O=C(N[C@@H]1CS(=O)(=O)C[C@H]1O)c1cccc(-c2ccc(NC[C@]3(c4ncccc4F)C[C@H](F)C3)nn2)c1 [N-((3S,4S)-4-hydroxy-1,1-dioxothiolan-3-yl){3-[6-({[3-fluoro-1-(3-fluoro(2-pyridyl))cyclobutyl]methyl}ami-no)pyridazin-3-yl]phenyl}carboxamide] | B (B=1-10 uM) | – | –
CC(C)(CNc1ccc(C(=O)NCC(N)=O)nn1)c1ccc(F)cc1 [N-(carbamoylmethyl)(6-{[2-(4-fluorophenyl)-2-methylpropyl]amino}pyridazin-3-yl)carboxamide] | – | – | Mean AC1.4 [2]: D (D=>20 uM)
NC(=O)CNC(=O)c1ccc(NCC2(c3ncccc3F)CCC2)nn1 [N-(carbamoylmethyl)[6-({[(3-fluoro(2-pyridyl))cyclobutyl]methyl}ami-no)pyridazin-3-yl]carboxamide] | – | D (D=>20 uM) | –
NC(=O)CNC(=O)c1cnc(-c2ccc(NCC3(c4ncccc4F)CCC3)nn2)s1 [N-(carbamoylmethyl){2-[6-({[(3-fluoro(2-pyridyl))cyclobutyl]methyl}ami-no)pyridazin-3-yl](1,3-thiazol-5-yl)}carboxamide] | – | A (A=<1 uM) | –
O=C(NCc1cnc(-c2ccc(NCC3(c4ncccc4F)CCC3)nn2)s1)c1cnc(O)[nH]1 [N-({2-[6-({[(3-fluoro(2-pyridyl))cyclobutyl]methyl}ami-no)pyridazin-3-yl](1,3-thiazol-5-yl)}methyl)(2-hydroxyimidazol-5-yl)carboxamide] | – | A (A=<1 uM) | –
CC(C)(O)C(=O)NCc1cnc(-c2ccc(NCC3(c4ncccc4F)CCC3)nn2)s1 [N-({2-[6-({[(3-fluoro(2-pyridyl))cyclobutyl]methyl}ami-no)pyridazin-3-yl](1,3-thiazol-5-yl)}methyl)-2-hydroxy-2-methylpropanamide] | – | A (A=<1 uM) | –
CN(Cc1cnc(-c2ccc(NCC3(c4ncccc4F)CCC3)nn2)s1)C(=O)CO [N-({2-[6-({[(3-fluoro(2-pyridyl))cyclobutyl]methyl}ami-no)pyridazin-3-yl](1,3-thiazol-5-yl)}methyl)-2-hydroxy-N-methylacetamide] | B (B=1-10 uM) | – | –
O=C(CO)NCc1cnc(-c2ccc(NCC3(c4ncccc4F)CCC3)nn2)s1 [N-({2-[6-({[(3-fluoro(2-pyridyl))cyclobutyl]methyl}ami-no)pyridazin-3-yl](1,3-thiazol-5-yl)}methyl)-2-hydroxyacetamide] | – | A (A=<1 uM) | –
CNC(C)(C)C(=O)NCc1cnc(-c2ccc(NCC3(c4ncccc4F)CCC3)nn2)s1 [N-({2-[6-({[(3-fluoro(2-pyridyl))cyclobutyl]methyl}ami-no)pyridazin-3-yl](1,3-thiazol-5-yl)}methyl)-2-methyl-2-(methylamino)propanamide] | A (A=<1 uM) | – | –
CC(C)C(=O)NCc1cnc(-c2ccc(NCC3(c4ncccc4F)CCC3)nn2)s1 [N-({2-[6-({[(3-fluoro(2-pyridyl))cyclobutyl]methyl}ami-no)pyridazin-3-yl](1,3-thiazol-5-yl)}methyl)-2-methylpropanamide] | – | A (A=<1 uM) | –
O=C(NCc1cnc(-c2ccc(NCC3(c4ncccc4F)CCC3)nn2)s1)c1ncc[nH]1 [N-({2-[6-({[(3-fluoro(2-pyridyl))cyclobutyl]methyl}ami-no)pyridazin-3-yl](1,3-thiazol-5-yl)}methyl)imidazol-2-ylcarboxamide] | – | A (A=<1 uM) | –
O=C(NCc1cnc(-c2ccc(NCC3(c4ncccc4F)CCC3)nn2)s1)c1cnc[nH]1 [N-({2-[6-({[(3-fluoro(2-pyridyl))cyclobutyl]methyl}ami-no)pyridazin-3-yl](1,3-thiazol-5-yl)}methyl)imidazol-5-ylcarboxamide] | – | A (A=<1 uM) | –
